Measurements taken from patent publication US8574556B2, “Antibacterial pharmaceutical composition comprising Aceriphyllum rossii extract and active compounds isolated therefrom” (Korea Research Institute of Bioscience and Biotechnology, priority 2008, dated 2013).
Converted amounts (≈) assume the structure as drawn. Like-named read-outs stand apart in the source and are kept apart here.

Columns and labels:
Type in all cases: cell-based
[1] = tested on: Staphylococcus aureus, methicillin-resistant S. aureus, and quinolone-resistant S. aureus; experiment: Broth microdilution MIC, summary over S. aureus strains; settings: range over Staphylococcus aureus, MRSA and QRSA strains (text summary of Table 2)
Method: (§1) Test strains were cultured in a Mueller Hinton broth, and the antibacterial activities were determined by a broth microdilution assay. The test strains were grown to the mid-logarithmic phase, and diluted to a concentration of 10^5/ml with the same broth. 0.2 ml of the cells was added to each well of 96-well plates. The samples prepared in Examples 1 and 2 and Comparative Example 1 were serially diluted 2-fold, and added to the plates. The cells were incubated at 30° C. for 18 hrs, and cell growth was measured at 650 nm.
(§2) The antibacterial activity of Aceriphyllum rossii extract was determined with respect to Staphylococcus aureus, and the antibacterial activities of aceriphyllic acid A and 3-oxo-12-oleanen-27-oic acid were determined with respect to 15 different types of strains. Triclosan, oxacillin, and norfloxacin, which are commercially available antibiotics, were used for comparison.

[2] = tested on: Propionibacterium acnes ATCC6919; experiment: Broth microdilution MIC, anaerobic RCMI liquid media
Method: Propionibacterium acnes was cultured in RCMI liquid media under anaerobic conditions, and the antibacterial activities were determined by a broth microdilution assay. The test strain was pre-cultured in liquid media at 37° C. for 1 to 2 days. 15 μl of test material dissolved in DMSO was added to 3 ml of broth to a concentration of 32 ppm. The sample was serially diluted 2-fold to prepare seven samples with different concentrations. The samples were added to the pre-cultured broth to a microbial concentration of 10^5-6 cfu/ml, and cultured for 1-3 days, followed by measurement of cell growth.
as §2

[3] = tested on: cariogenic bacteria (Streptococcus mutans); experiment: Broth microdilution MIC, for cariogenic bacteria; settings: Streptococcus mutans (text summary of Table 2)
Method: as §1, §2

[4] = tested on: Acinetobacter calcoaceticus, Micrococcus luteus, and Bacillus subtilis; experiment: Broth microdilution MIC, text summary; settings: range over Acinetobacter calcoaceticus, Micrococcus luteus and Bacillus subtilis (text summary of Table 2)
Method: as §1, §2

[5] = tested on: Micrococcus luteus KCTC1056; experiment: Broth microdilution MIC
Method: as §1, §2

[6] = tested on: Staphylococcus aureus KCTC1916; experiment: Broth microdilution MIC
Method: as §1, §2

[7] = tested on: Staphylococcus aureus RN4220; experiment: Broth microdilution MIC
Method: as §1, §2

[8] = tested on: Streptococcus mutans KCTC3065; experiment: Broth microdilution MIC
Method: as §1, §2

[9] = tested on: Staphylococcus aureus CCARM3167(MRSA); experiment: Broth microdilution MIC
Method: as §1, §2

[10] = tested on: Streptococcus mutans KCTC5248; experiment: Broth microdilution MIC
Method: as §1, §2

[11] = tested on: Acinetobacter calcoaceticus KCTC2357; experiment: Broth microdilution MIC
Method: as §1, §2

[12] = tested on: Streptococcus pneumoniae KCTC3932; experiment: Broth microdilution MIC
Method: as §1, §2

[13] = tested on: Streptococcus mutans KCTC3289; experiment: Broth microdilution MIC
Method: as §1, §2

[14] = tested on: Staphylococcus aureus 503; experiment: Broth microdilution MIC
Method: as §1, §2

[15] = tested on: Enterococcus faecium KCTC3122; experiment: Broth microdilution MIC
Method: as §1, §2

[16] = tested on: Bacillus subtilis KCTC1021; experiment: Broth microdilution MIC
Method: as §1, §2

[17] = tested on: Staphylococcus aureus CCARM3506(MRSA); experiment: Broth microdilution MIC
Method: as §1, §2

[18] = tested on: Staphylococcus aureus CCARM3519(QRSA); experiment: Broth microdilution MIC
Method: as §1, §2

[19] = tested on: Staphylococcus aureus CCARM3505(QRSA); experiment: Broth microdilution MIC
Method: as §1, §2

[20] = Cutibacterium acnes, ATCC6919, Propionibacterium acnes (text summary of Table 2), read-out: MIC
[21] = Propionibacterium acnes ATCC6919
[22] = Staphylococcus aureus CCARM3167(MRSA), read-out: MIC
[23] = Staphylococcus aureus CCARM3506(MRSA), read-out: MIC
[24] = Staphylococcus aureus CCARM3519(QRSA), read-out: MIC
[25] = Staphylococcus aureus CCARM3505(QRSA), read-out: MIC

CC1(C)CC[C@]2(C)CC[C@@]3(C(=O)O)C(=CCC4[C@@]5(C)CCC(=O)C(C)(C)C5CC[C@]43C)C2C1 (stereo partly shown) [3-Oxo-12-oleanen-27-oic acid]
MIC [1]: 2 to 8 mg/L (≈ 4.4 to 17.6 µM)
MIC [2, 20]: 2 mg/L (≈ 4.4 µM)
MIC [2, 21]: 2 mg/L (≈ 4.4 µM)
MIC [3]: 4 mg/L (≈ 8.8 µM)
MIC [4]: 1 to 2 mg/L (≈ 2.2 to 4.4 µM)
MIC ([5]; read-out: MIC): 2 mg/L (≈ 4.4 µM)
MIC ([6]; read-out: MIC): 2 mg/L (≈ 4.4 µM)
MIC [7]: 4 mg/L (≈ 8.8 µM)
MIC ([8]; read-out: MIC): 4 mg/L (≈ 8.8 µM)
MIC [9, 22]: 4 mg/L (≈ 8.8 µM)
MIC ([10]; read-out: MIC): 4 mg/L (≈ 8.8 µM)
MIC ([11]; read-out: MIC): 2 mg/L (≈ 4.4 µM)
MIC ([12]; read-out: MIC): 16 mg/L (≈ 35.2 µM)
MIC ([13]; read-out: MIC): 4 mg/L (≈ 8.8 µM)
MIC ([14]; read-out: MIC): 2 mg/L (≈ 4.4 µM)
MIC ([15]; read-out: MIC): > 64 mg/L
MIC ([16]; read-out: MIC): 2 mg/L (≈ 4.4 µM)
MIC [17, 23]: 8 mg/L (≈ 17.6 µM)
MIC [18, 24]: 8 mg/L (≈ 17.6 µM)
MIC [19, 25]: 8 mg/L (≈ 17.6 µM)

CC1(C)CC[C@]2(C)CC[C@@]3(C(=O)O)C(=CCC4[C@@]5(C)CC[C@@H](O)[C@@](C)(CO)C5CC[C@]43C)C2C1 (stereo partly shown) [Aceriphyllic acid A, Aceriphyllic Acid A]
MIC [1]: 2 to 4 mg/L (≈ 4.23 to 8.46 µM)
MIC [2, 20]: 2 mg/L (≈ 4.23 µM)
MIC [2, 21]: 2 mg/L (≈ 4.23 µM)
MIC [3]: 2 to 4 mg/L (≈ 4.23 to 8.46 µM)
MIC [4]: 1 to 2 mg/L (≈ 2.12 to 4.23 µM)
MIC ([5]; read-out: MIC): 2 mg/L (≈ 4.23 µM)
MIC ([6]; read-out: MIC): 4 mg/L (≈ 8.46 µM)
MIC [7]: 4 mg/L (≈ 8.46 µM)
MIC ([8]; read-out: MIC): 2 mg/L (≈ 4.23 µM)
MIC [9, 22]: 4 mg/L (≈ 8.46 µM)
MIC ([10]; read-out: MIC): 2 mg/L (≈ 4.23 µM)
MIC ([11]; read-out: MIC): 2 mg/L (≈ 4.23 µM)
MIC ([12]; read-out: MIC): 32 mg/L (≈ 67.7 µM)
MIC ([13]; read-out: MIC): 4 mg/L (≈ 8.46 µM)
MIC ([14]; read-out: MIC): 2 mg/L (≈ 4.23 µM)
MIC ([15]; read-out: MIC): 8 mg/L (≈ 16.9 µM)
MIC ([16]; read-out: MIC): 1 mg/L (≈ 2.12 µM)
MIC [17, 23]: 4 mg/L (≈ 8.46 µM)
MIC [18, 24]: 4 mg/L (≈ 8.46 µM)
MIC [19, 25]: 4 mg/L (≈ 8.46 µM)

CCn1cc(C(=O)O)c(=O)c2cc(F)c(N3CCNCC3)cc21 [Norfloxacin]
MIC ([5]; read-out: MIC): 2 mg/L (≈ 6.26 µM)
MIC ([6]; read-out: MIC): 0.25 mg/L (≈ 0.783 µM)
MIC [7]: 1 mg/L (≈ 3.13 µM)
MIC ([8]; read-out: MIC): 8 mg/L (≈ 25.1 µM)
MIC [9, 22]: 8 mg/L (≈ 25.1 µM)
MIC ([10]; read-out: MIC): 8 mg/L (≈ 25.1 µM)
MIC ([11]; read-out: MIC): 0.25 mg/L (≈ 0.783 µM)
MIC ([12]; read-out: MIC): 2 mg/L (≈ 6.26 µM)
MIC ([13]; read-out: MIC): 8 mg/L (≈ 25.1 µM)
MIC ([14]; read-out: MIC): 1 mg/L (≈ 3.13 µM)
MIC ([15]; read-out: MIC): 8 mg/L (≈ 25.1 µM)
MIC ([16]; read-out: MIC): 0.25 mg/L (≈ 0.783 µM)
MIC [17, 23]: 1 mg/L (≈ 3.13 µM)
MIC [18, 24]: 125 mg/L (≈ 391 µM)
MIC [19, 25]: 250 mg/L (≈ 783 µM)

Cc1onc(-c2ccccc2)c1C(=O)N[C@@H]1C(=O)N2[C@@H]1SC(C)(C)[C@@H]2C(=O)O [Oxacillin]
MIC ([5]; read-out: MIC): 8 mg/L (≈ 19.9 µM)
MIC ([6]; read-out: MIC): 0.25 mg/L (≈ 0.623 µM)
MIC [7]: 0.25 mg/L (≈ 0.623 µM)
MIC ([8]; read-out: MIC): 0.06 mg/L (≈ 0.149 µM)
MIC [9, 22]: 500 mg/L (≈ 1250 µM)
MIC ([10]; read-out: MIC): 0.06 mg/L (≈ 0.149 µM)
MIC ([11]; read-out: MIC): 0.125 mg/L (≈ 0.311 µM)
MIC ([12]; read-out: MIC): 2 mg/L (≈ 4.98 µM)
MIC ([13]; read-out: MIC): 0.06 mg/L (≈ 0.149 µM)
MIC ([14]; read-out: MIC): 0.25 mg/L (≈ 0.623 µM)
MIC ([15]; read-out: MIC): 2 mg/L (≈ 4.98 µM)
MIC ([16]; read-out: MIC): 0.25 mg/L (≈ 0.623 µM)
MIC [17, 23]: 500 mg/L (≈ 1250 µM)
MIC [18, 24]: 0.5 mg/L (≈ 1.25 µM)
MIC [19, 25]: 0.5 mg/L (≈ 1.25 µM)

Oc1cc(Cl)ccc1Oc1ccc(Cl)cc1Cl [Triclosan]
MIC [5]: 1 mg/L (≈ 3.45 µM)
MIC [6]: 0.006 mg/L (≈ 0.0207 µM)
MIC [7]: 0.006 mg/L (≈ 0.0207 µM)
MIC [8]: 1 mg/L (≈ 3.45 µM)
MIC ([9]; Staphylococcus aureus): 0.006 mg/L (≈ 0.0207 µM)
MIC [10]: 1 mg/L (≈ 3.45 µM)
MIC [11]: 0.003 mg/L (≈ 0.0104 µM)
MIC [12]: 32 mg/L (≈ 111 µM)
MIC [13]: 1 mg/L (≈ 3.45 µM)
MIC [14]: 0.006 mg/L (≈ 0.0207 µM)
MIC [15]: 4 mg/L (≈ 13.8 µM)
MIC [16]: 0.003 mg/L (≈ 0.0104 µM)
MIC ([17]; Staphylococcus aureus): 0.006 mg/L (≈ 0.0207 µM)
MIC ([18]; Staphylococcus aureus, CCARM3519): 0.006 mg/L (≈ 0.0207 µM)
MIC ([19]; Staphylococcus aureus, CCARM3505): 0.006 mg/L (≈ 0.0207 µM)
